In US7759504B2, “Triarylamine derivative” (Fujifilm Corporation, priority 2007, dated 2010):

How the values were obtained:
Type in all cases: physicochemical
[1] = Wet heat resistance of PMMA film sample (colorant residual rate); conditions: 60° C. and relative humidity of 90% for 200 hours; 5% by weight in PMMA film; absorbance after/before treatment
Method: (§1) Into 25 ml of dichloromethane were dissolved 2.5 g of PMMA, and 0.125 g of the triarylamine derivative, and the solution was coated on a 100 μm-thick PET film. This was dried at 80° C. for 2 hours under reduced pressure to prepare a sample for assessment having a thickness of from 2 to 3 μm. The sample for assessment contained the triarylamine derivative at 5% by weight based on PMMA.
(§2) The sample for assessment obtained above was subjected to wet heat treatment at 60° C. and a relative humidity of 90% for 200 hours. The absorbance of the assessment sample at the maximum absorption wavelength of the triarylamine derivative (colorant) was measured, and a colorant residual rate (%) was obtained as a ratio of the absorbance after wet heat treatment relative to the absorbance before wet heat treatment.

[2] = Solubility in 2-butanone (MEK)
[3] = Light resistance of PMMA film sample (colorant residual rate); conditions: 170 hours xenon lamp (170 thousands lux, UV cut filter); 5% by weight in PMMA film; absorbance after/before treatment
Method: as §1
as §2, with “irradiation-treated for 170 hours with” for “subjected to wet heat treatment at 60° C. and”, “xenon lamp (170 thousands lux, using an UV cut filter).” for “relative humidity of 90% for 200 hours.”, “irradiation” for “wet heat”

[4] = Heat resistance of PMMA film sample (colorant residual rate); conditions: 80° C. for 400 hours; 5% by weight in PMMA film; absorbance at maximum absorption wavelength after/before treatment
Method: as §1
as §2, with “heat-treated” for “subjected to wet heat treatment”, “80°” for “60°”, “C.” for “C. and a relative humidity of 90%”, “400” for “200”, “after” for “after wet”, “before” for “before wet”

Compound: CCCCN(CCCC)c1ccc([N+](=C2C=CC(=[N+](CCCC)CCCC)C=C2)c2ccc(N(CCCC)CCCC)cc2)cc1 [Comparative Example, reference compound]
- Wet Heat Resistance (colorant residual rate) [1]: 45%
- Solubility (w/v) [2]: 16% w/v %
- Light Resistance (colorant residual rate) [3]: 98%
- Heat Resistance (colorant residual rate) [4]: 80%

Compound: CCCCN(CCCC)c1ccc([N+](=C2C=CC(=[N+](CCCC)CCCC)C=C2C)c2ccc(N(CCCC)CCCC)cc2)cc1 [Compound 28]
- Wet Heat Resistance (colorant residual rate) [1]: 48%
- Solubility (w/v) [2]: 23% w/v %
- Light Resistance (colorant residual rate) [3]: 98%
- Heat Resistance (colorant residual rate) [4]: 82%

Compound: CCCCN(CCCC)c1ccc([N+](=C2C=CC(=[N+](CCCC)CCCC)C=C2C)c2ccc(N(CCCC)CCCC)cc2)cc1 [Compound 79]
- Wet Heat Resistance (colorant residual rate) [1]: 89%
- Solubility (w/v) [2]: 32% w/v %
- Light Resistance (colorant residual rate) [3]: 99%
- Heat Resistance (colorant residual rate) [4]: 87%
